Source: ChEMBL document CHEMBL5257145, “1,2,4-Triazine Derivatives as NLRP3 Inhibitors for Treating Diseases” (ACS Med Chem Lett, 2023)

Each molecule was assayed against NACHT, LRR and PYD domains-containing protein 3 (Homo sapiens, UniProt Q96P20) (assay: Inhibition of NLRP3 inflammasome activation in PMA-differentiated human THP-1 cells assessed as reduction in IL-1beta secretion preincubated for 20 hrs followed by nigericin addition and measured after 3 hrs by HTRF assay).
Format: cell-based

Chain of NACHT, LRR and PYD domains-containing protein 3 (Q96P20 whole entry, the tested form may be a part): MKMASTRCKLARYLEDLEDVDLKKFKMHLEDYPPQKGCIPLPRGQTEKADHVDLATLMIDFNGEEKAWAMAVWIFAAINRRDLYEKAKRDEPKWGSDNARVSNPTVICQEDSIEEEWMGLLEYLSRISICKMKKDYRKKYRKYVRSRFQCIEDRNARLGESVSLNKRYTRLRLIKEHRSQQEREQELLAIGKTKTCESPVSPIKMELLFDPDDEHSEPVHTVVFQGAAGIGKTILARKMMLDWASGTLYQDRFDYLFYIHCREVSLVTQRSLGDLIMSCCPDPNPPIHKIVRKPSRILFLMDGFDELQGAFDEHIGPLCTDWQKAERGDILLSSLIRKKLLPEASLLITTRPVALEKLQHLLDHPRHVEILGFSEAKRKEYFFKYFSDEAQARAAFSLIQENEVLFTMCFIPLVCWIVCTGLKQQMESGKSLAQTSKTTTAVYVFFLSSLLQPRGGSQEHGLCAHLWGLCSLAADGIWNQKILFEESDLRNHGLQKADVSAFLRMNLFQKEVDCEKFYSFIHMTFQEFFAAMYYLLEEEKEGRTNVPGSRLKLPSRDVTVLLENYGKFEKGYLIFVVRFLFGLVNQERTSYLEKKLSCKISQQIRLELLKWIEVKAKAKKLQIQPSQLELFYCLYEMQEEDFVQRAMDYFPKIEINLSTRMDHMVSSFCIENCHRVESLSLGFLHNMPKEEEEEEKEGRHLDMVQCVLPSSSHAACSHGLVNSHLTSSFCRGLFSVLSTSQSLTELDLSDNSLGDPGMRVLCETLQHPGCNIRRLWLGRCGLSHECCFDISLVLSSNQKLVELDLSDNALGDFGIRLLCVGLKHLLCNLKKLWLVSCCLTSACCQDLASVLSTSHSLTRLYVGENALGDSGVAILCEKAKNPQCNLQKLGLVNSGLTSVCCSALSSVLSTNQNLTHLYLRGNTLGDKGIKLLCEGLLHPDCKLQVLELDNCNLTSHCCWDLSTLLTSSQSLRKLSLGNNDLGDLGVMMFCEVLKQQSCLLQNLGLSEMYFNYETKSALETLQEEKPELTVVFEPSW

IC50, < 1 nM:
Cc1cc(O)c(-c2nnc(N[C@@H]3CCCN(C)C3)nc2C)c(F)c1
Cc1nc(N[C@@H]2CCCN(C)C2)nnc1-c1ccc(Cl)cc1O
COc1ccc(-c2nnc(N[C@@H]3CCCN(C)C3)nc2C)c(O)c1
Cc1nc(N[C@@H]2CCCN(C)C2)nnc1-c1ccc(C(F)(F)F)cc1O
COc1cc(O)c(-c2nnc(N[C@@H]3CCCN(C)C3)nc2C)c(F)c1
Cc1nc(N[C@@H]2CCCN(C)C2)nnc1-c1ccc(C2CC2)cc1O
